Experimental data: patent US20230271969A1, “NITROGEN-CONTAINING FUSED RING DERIVATIVE INHIBITOR, PREPARATION METHOD THEREFOR AND USE THEREOF” (Shanghai Hansoh Biomedical Co., Ltd., priority 2020, published 2023)

Tests used:
NK3 receptors [1] = target: T1, NK3 receptors (Homo sapiens, UniProt P29371); test: Calcium ion fluidity (FLIPR) in cells with stable expression of NK3 receptors; format: cell-based; conditions: calcium signal, antagonist mode, read-out: NK3R IC50 (nM) FLIPR
T1 construct: expressed in transfected cells
T1 sequence (P29371 1-465): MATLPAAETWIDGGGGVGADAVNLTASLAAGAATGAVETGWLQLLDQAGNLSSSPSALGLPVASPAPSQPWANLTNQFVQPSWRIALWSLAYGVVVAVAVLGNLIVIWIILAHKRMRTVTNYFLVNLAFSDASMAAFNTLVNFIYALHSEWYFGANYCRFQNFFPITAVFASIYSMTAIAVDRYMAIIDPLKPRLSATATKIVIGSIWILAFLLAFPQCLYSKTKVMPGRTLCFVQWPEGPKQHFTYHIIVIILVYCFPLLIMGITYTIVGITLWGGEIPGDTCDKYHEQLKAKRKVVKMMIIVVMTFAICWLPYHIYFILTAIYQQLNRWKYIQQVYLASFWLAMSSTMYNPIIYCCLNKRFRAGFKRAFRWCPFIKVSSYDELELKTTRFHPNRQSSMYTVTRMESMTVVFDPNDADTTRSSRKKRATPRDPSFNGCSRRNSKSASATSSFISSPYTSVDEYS
Excerpt: Determination of the Effect of the Compounds of the Present Invention on Calcium Ion Fluidity in Cells with Stable Expression of NK3 Receptors
Experimental objective: The objective of this test example was to determine the inhibitory effect of the compounds on NK3 receptors.
Experimental Methods: • 1. […] Probenecid and BSA were freshly added on the day of the experiment. The buffers for the experiments included dye buffer, compound dilution buffer and the like. • 2. […] The culture medium was discarded, and 20 μL of dye was added. The cells were incubated at 37° C. in the dark for 60 min, and then the calcium signal was read. • 4. The antagonist was prepared before the experiments. […] The plate was transferred to FLIPR, and 6× concentration of the agonist compound was added at 5 μL/well. The values were read and the data were saved by using FLIPR. The total assay volume was 30 μL, comprising 20 μL/well of dye buffer, 5 μL/well of 5× concentration of the experimental compound, and 5 μL/well of 6× concentration of the agonist compound.
The calcium signal value was read by FLIPR. The output of each sampling time point in the experiment was calculated as the ratio of the signals at wavelengths of 340/510 nm to 380/510 nm. The maximum minus minimum value was calculated from the ratio signal curve. The IC50 value of the compound was calculated by fitting the data of inhibition rate percentage and ten concentrations to the parametric nonlinear logistic equation by using GraphPad prism.

NK3 receptors [2] = target: T1, NK3 receptors; test: Antagonism of IP1 in HEK293 cells with stable expression of NK3; format: cell-based; conditions: agonist Senktide 3 nM, read-out: NK3R IC50 (nM) IP1
Method: Determination of the Effect of the Compounds of the Present Invention on IP1 in HEK293 Cells with Stable Expression of NK3
The objective of this test example was to determine the antagonism effect of the compounds on the activity of HEK293-NK3 cells.
3. Experimental Methods: • 1. […] HEK293-NK3 cell line was cultured in complete medium and seeded in the coated dishes at 37° C., 5% CO2 until 70%˜90% confluence. • 3. […] The cells were digested and resuspended in 1× Stimulation Buffer (IP-ONE Gq Kit), seeded into the 384-well cell culture plate (which contained the compound to be tested) at 5,000 cells/well/5 μL by using Multidrop Combi. The culture plate was centrifuged at 300 rpm at room temperature for 60 seconds, and then incubated at 37° C., 5% CO2 for 15 minutes. • 5. The cell culture plate was taken out from the CO2 incubator. […] The culture plate was centrifuged at 300 rpm at room temperature for 60 seconds, and then incubated at 37° C., 5% CO2 for 2 hours. • 6. The cell culture plate was taken out from the CO2 incubator. 5 μL of IP1 d2 reagent and then 5 μL of IP1 Tb Cryptate Antibody reagent were added by using Multidrop Combi. The culture plate was centrifuged at room temperature at 300 rpm for 60 seconds, and left to stand at room temperature for 1 hour. • 7. The plate was read by using EnVision Multilabel Reader, and data were collected at the same time.
The fluorescence signal ratio (Ratio) was read and collected by EnVision Multilabel Reader. According to the readings of the Low control (DMSO control) and High control (p)ositive compound) experimental groups, the antagonism percentage data were calculated as {% antagonism=(Ratio sample−Ratio low control)/(Ratio high control−Ratio low control)×100}.

`C[C@@H]1c2nnc(-c3nc4ccccc4s3)n2CCN1C(=O)c1ccc(F)cc1` [Example 1, (R)-(3-(Benzo[d]thiazol-2-yl)-8-methyl-5,6-dihydro-[1,2,4]triazolo[4,3-a]pyrazin-7 (8H)-yl)(4-fluorophenyl)methanone] gave an IC50 (NK3 receptors [1]) of 76.2 nM.
Compound `C[C@@H]1c2nnc(-c3nc4ccccc4s3)n2CCN1C(=O)c1ccc(Cl)c(Cl)c1` [Example 4, (R)-(3-(Benzo[d]thiazol-2-yl)-8-methyl-5,6-dihydro-[1,2,4]triazolo[4,3-a]pyrazin-7 (8H)-yl)(3,4-dichlorophenyl)methanone] has an IC50 (NK3 receptors [1]) of 61.3 nM and an IC50 (NK3 receptors [2]) of 94.3 nM.
`C[C@@H]1c2nnc(-c3nc4ccccc4s3)n2CCN1C(=O)c1ccc(-c2cccs2)cc1` [Example 5, (R)-(3-(Benzo[d]thiazol-2-yl)-8-methyl-5,6-dihydro-[1,2,4]triazolo[4,3-a]pyrazin-7 (8H)-yl)(4-(thien-2-yl)phenyl)methanone] was tested, and the IC50 (NK3 receptors [1]) was 159 nM.
`C[C@@H]1c2nnc(-c3nc4cc(F)ccc4s3)n2CCN1C(=O)c1ccc(F)cc1` [Example 9, (R)-(3-(5-Fluorobenzo[d]thiazol-2-yl)-8-methyl-5,6-dihydro-[1,2,4]triazolo[4,3-a]pyrazin-7(8H)-yl)(4-fluorophenyl)methanone] gave an IC50 (NK3 receptors [1]) of 33.3 nM and an IC50 (NK3 receptors [2]) of 46 nM.
Work on `C[C@@H]1c2nnc(-c3nc4cc(F)ccc4s3)n2CCN1C(=O)c1ccc(Cl)cc1` [Example 10, (R)-(4-Chlorophenyl)(3-(5-fluorobenzo[d]thiazol-2-yl)-8-methyl-5,6-dihydro-[1,2,4]triazolo[4,3-a]pyrazin-7(8H)-yl)methanone] yielded an IC50 (NK3 receptors [1]) of 51.4 nM and an IC50 (NK3 receptors [2]) of 172 nM.
Compound `C[C@@H]1c2nnc(-c3nc4cc(F)ccc4s3)n2CCN1C(=O)c1ccc(Cl)c(Cl)c1` [Example 11, (R)-(3,4-Dichlorophenyl)(3-(5-fluorobenzo[d]thiazol-2-yl)-8-methyl-5,6-dihydro-[1,2,4]triazolo[4,3-a]pyrazin-7(8H)-yl)methanone] has an IC50 (NK3 receptors [1]) of 47.5 nM and an IC50 (NK3 receptors [2]) of 176 nM.
`C[C@@H]1c2nnc(-c3nc4ccc(F)cc4s3)n2CCN1C(=O)c1ccc(F)cc1` [Example 12, (R)-(3-(6-Fluorobenzo[d]thiazol-2-yl)-8-methyl-5,6-dihydro-[1,2,4]triazolo[4,3-a]pyrazin-7(8H)-yl)(4-fluorophenyl)methanone] gave an IC50 (NK3 receptors [1]) of 37 nM and an IC50 (NK3 receptors [2]) of 39.3 nM.
`C[C@@H]1c2nnc(-c3nc4ccc(F)cc4s3)n2CCN1C(=O)c1ccc(Cl)cc1` [Example 13, (R)-(4-Chlorophenyl)(3-(6-fluorobenzo[d]thiazol-2-yl)-8-methyl-5,6-dihydro-[1,2,4]triazolo[4,3-a]pyrazin-7(8H)-yl)methanone] showed an IC50 (NK3 receptors [1]) of 71.6 nM and an IC50 (NK3 receptors [2]) of 131 nM.
With `C[C@@H]1c2nnc(-c3nc4ccc(F)cc4s3)n2CCN1C(=O)c1ccc(Cl)c(Cl)c1` [Example 14, (R)-(3,4-Dichlorophenyl)(3-(6-fluorobenzo[d]thiazol-2-yl)-8-methyl-5,6-dihydro-[1,2,4]triazolo[4,3-a]pyrazin-7(8H)-yl)methanone] the IC50 (NK3 receptors [1]) was 97.6 nM and the IC50 (NK3 receptors [2]) was 41.9 nM.
In the case of `C[C@@H]1c2nnc(-c3nc4c(F)cc(F)cc4s3)n2CCN1C(=O)c1ccc(Cl)cc1` [Example 16, (R)-(4-Chlorophenyl)(3-(4,6-difluorobenzo[d]thiazol-2-yl)-8-methyl-5,6-dihydro-[1,2,4]triazolo[4,3-a]pyrazin-7(8H)-yl)methanone], the IC50 (NK3 receptors [2]) is reported as 146 nM.
Compound `C[C@@H]1c2nnc(-c3nc4cc(F)cc(F)c4s3)n2CCN1C(=O)c1ccc(F)cc1` [Example 18, (R)-(3-(5,7-Difluorobenzo[d]thiazol-2-yl)-8-methyl-5,6-dihydro-[1,2,4]triazolo[4,3-a]pyrazin-7(8H)-yl)(4-fluorophenyl)methanone] has an IC50 (NK3 receptors [1]) of 130 nM.
`C[C@@H]1c2nnc(-c3nc4ccc(Cl)cc4s3)n2CCN1C(=O)c1ccc(F)cc1` [Example 19, (R)-(3-(6-Chlorobenzo[d]thiazol-2-yl)-8-methyl-5,6-dihydro-[1,2,4]triazolo[4,3-a]pyrazin-7(8H)-yl)(4-fluorophenyl)methanone] was tested, and the IC50 (NK3 receptors [1]) was 10.9 nM and the IC50 (NK3 receptors [2]) was 15.6 nM.
`C[C@@H]1c2nnc(-c3nc4ccc(Cl)nc4s3)n2CCN1C(=O)c1ccc(F)cc1` [Example 38] gave an IC50 (NK3 receptors [1]) of 247 nM.
With `C[C@@H]1c2nnc(-c3nc4sccc4s3)n2CCN1C(=O)c1ccc(F)cc1` [Example 40, (R)-(4-Fluorophenyl)(8-methyl-3-(thieno[2,3-d]thiazol-2-yl)-5,6-dihydro-[1,2,4]triazolo[4,3-a]pyrazin-7(8H)-yl)methanone] the IC50 (NK3 receptors [1]) was 298 nM.
Work on `C[C@@H]1c2nnc(-c3nc4sccc4s3)n2CCN1C(=O)c1ccc(Cl)cc1` [Example 41, (R)-(4-Chlorophenyl)(8-methyl-3-(thieno[2,3-d]thiazol-2-yl)-5,6-dihydro-[1,2,4]triazolo[4,3-a]pyrazin-7(8H)-yl)methanone] yielded an IC50 (NK3 receptors [1]) of 224 nM.
Compound `C[C@@H]1c2nnc(-c3nc4ccsc4s3)n2CCN1C(=O)c1ccc(Cl)c(Cl)c1` [Example 44, (R)-(3,4-Dichlorophenyl)(8-methyl-3-(thieno[3,2-d]thiazol-2-yl)-5,6-dihydro-[1,2,4]triazolo[4,3-a]pyrazin-7(8H)-yl)methanone] has an IC50 (NK3 receptors [1]) of 255 nM.
`C[C@@H]1c2nnc(-c3cc4ccccn4n3)n2CCN1C(=O)c1ccc(Cl)c(Cl)c1` [Example 46, (R)-(3,4-Dichlorophenyl)(8-methyl-3-(pyrazolo[1,5-a]pyridin-2-yl)-5,6-dihydro-[1,2,4]triazolo[4,3-a]pyrazin-7(8H)-yl)methanone] gave an IC50 (NK3 receptors [1]) of 107 nM.
Work on `[2H]c1c([2H])c(C(=O)N2CCn3c(-c4nc(C([2H])([2H])[2H])ns4)nnc3[C@H]2C)c([2H])c([2H])c1F` [Example 50, (R)-(4-Fluorophenyl-2,3,5,6-d4)(8-methyl-3-(3-(methyl-d3)-1,2,4-thiadiazol-5-yl)-5,6-dihydro-[1,2,4]triazolo[4,3-a]pyrazin-7(8H)-yl)methanone] yielded an IC50 (NK3 receptors [1]) of 147 nM.
`[2H]C([2H])([2H])N(c1nsc(-c2nnc3n2CCN(C(=O)c2ccc(F)cc2)[C@@H]3C)n1)C([2H])([2H])[2H]` [Example 106, (R)-(3-(3-(Bis(methyl-d3)amino)-1,2,4-thiadiazol-5-yl)-8-methyl-5,6-dihydro-[1,2,4]triazolo[4,3-a]pyrazin-7(8H)-yl)(4-fluorophenyl)methanone] showed an IC50 (NK3 receptors [2]) of 129 nM.
In the case of `C[C@@H]1c2nnc(-c3nc(N(C)C4CC4)ns3)n2CCN1C(=O)c1ccc(F)cc1` [Example 115, (R)-(3-(3-(Cyclopropyl(methyl)amino)-1,2,4-thiadiazol-5-yl)-8-methyl-5,6-dihydro-[1,2,4]triazolo[4,3-a]pyrazin-7(8H)-yl)(4-fluorophenyl)methanone], the IC50 (NK3 receptors [2]) is reported as 76.6 nM.
`[2H]c1cc(C(=O)N2CCn3c(-c4nc(N5CC(F)C5)cs4)nnc3[C@H]2C)ccc1F` [Example 117, (R)-(3-(4-(3-Fluoroazetidin-1-yl)thiazol-2-yl)-8-methyl-5,6-dihydro-[1,2,4]triazolo[4,3-a]pyrazin-7(8H)-yl)(4-fluorophenyl-3-d)methanone] gave an IC50 (NK3 receptors [2]) of 116 nM.
`[2H]c1cc(C(=O)N2CCn3c(-c4nc(Cl)cs4)nnc3[C@H]2C)ccc1F` [Example 121, (R)-(3-(4-Chlorothiazol-2-yl)-8-methyl-5,6-dihydro-[1,2,4]triazolo[4,3-a]pyrazin-7 (8H)-yl)(4-fluorophenyl-3-d)methanone] showed an IC50 (NK3 receptors [2]) of 132 nM.
